Article PMC7756341, “Liposomal FRET Assay Identifies Potent Drug‐Like Inhibitors of the Ceramide Transport Protein (CERT)” (Chemistry (Weinheim an Der Bergstrasse, Germany), 2020)
pKd: −log10 of the molar value. Several values for one entry are separate records, joined by “and”; a condition that tells them apart may be missing. Identical values can stand only once. Like-named read-outs stand apart in the source and are kept apart here.

Molecular target: T1, START domain of human CERT (Homo sapiens, UniProt Q9Y5P4)
T1 construct: The START domain of hCERT was expressed has a His6-SUMO fusion protein [2]; His6-SUMO (N, cleaved yes); made in house; host or cells: E. coli BL21(DE3), pQE-based plasmid
T1 sequence (Q9Y5P4 347-598 isoform Q9Y5P4-2 limits assumed): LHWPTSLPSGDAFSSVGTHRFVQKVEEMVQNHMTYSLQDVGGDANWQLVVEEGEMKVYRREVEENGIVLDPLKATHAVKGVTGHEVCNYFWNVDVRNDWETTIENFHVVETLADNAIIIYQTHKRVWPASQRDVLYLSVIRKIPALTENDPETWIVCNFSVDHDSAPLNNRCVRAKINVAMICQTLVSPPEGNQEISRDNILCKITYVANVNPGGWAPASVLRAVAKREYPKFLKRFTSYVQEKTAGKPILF
Assay: Microscale thermophoresis (MST) binding assay
Conditions: for pKd: fluorescently labeled START domain 50 nM
Experimental: 1.2 Expression and purification of the START domain of human CERT
The START domain of hCERT was expressed has a His6-SUMO fusion protein [2]. The pQE-based plasmid harboring the genetic information of His6-SUMO-START was transformed into E. coli BL21(DE3) by following the standard heat shock method. Colonies were grown on carbenicillin ([…]) and 1% glucose supplemented Luria–Bertani (LB) agar plates. A single colony was used to inoculate 20 ml of pre-culture 1 % of which was then used to inoculate 500 ml of LB medium ([…] carbenicillin, 10 mM glucose, 37 °C, 160 rpm). Upon reaching OD600 = 0.8, the culture was induced with 500 μM IPTG (isopropyl-β-d-thiogalactoside) and cells were incubated for 16 h with continuous shaking at 160 rpm. The cells were harvested by centrifugation […]
For purification of the protein, the cell pellet was re-suspended in lysis buffer (25 mM Tris/HCl, pH 7.4, 270 mM Sucrose, 1% Triton X-100, 2.5 mM dithiothreitol (DTT), Protease/Phosphatase inhibitor) on ice. Cells were disrupted using an EmulsiFlex-C3 instrument (Avestin Inc.; CANADA). The lysate was cleared by centrifugation, and the supernatant was loaded onto a Ni– NTA column (Qiagen). The protein was washed with loading buffer pH 7.4 (50 mM Na2HPO4, 50 mM NaH2PO4, 150 mM NaCl, 2,5 mM DTT) containing 20 mM imidazole and eluted with elution […]
mM imidazole. Fractions containing the protein of interest according to SDS-PAGE were pooled and digested with Ubiquitin-like-protein specific protease 1 (ULP1). The by-products (His6-SUMO and ULP1) were removed in a second IMAC step, and the target protein was subjected to a final purification by gel filtration on a superdex 200 16/600 prep grade column equilibrated with loading buffer pH 7.4 (50 mM Na2HPO4, 50 mM NaH2PO4, 150 mM NaCl, 2.5 mM DTT). The monomeric form of the START domain of hCERT was collected. The final concentration of the protein was determined via UV-Visible spectrophotometry (Varian Cary 50) at 280 nm using a calculated extinction coefficient of 50420 (M-1 cm-1).
4. Microscale Thermophoresis (MST) assays
4.1 Labeling of the START domain with a fluorophore dye
In order to perform MST assays, the START domain was coupled with a commercially available fluorophore dye (NT647 (NanoTemper Technologies, Munich, Germany)) following standard procedures provided in the manufacturer's protocol. Briefly, 10 µM of the START domain was labeled with 30 µM of the fluorophore in NHS-LB buffer kept in the dark for 30min. Any excess of the dye was removed via size exclusion chromatography on a Sephadex G25 column (GE Healthcare). The concentration of the labeled protein was determined by UV-VIS spectrophotometry at 280 nm (Varian Cary 50).
4.2 Preparation of the dilution series and MST assay
Dilution series of small-molecule ligands were prepared from stock solutions in DMSO. In case of 6B11 and 17C9, ligands were then diluted into MST buffer (50 mM Na-phosphate, 150 mM NaCl, 2.5 mM DTT, 0.05% Tween-20) to a concentration 2-fold higher than the maximum concentration used in the assay. The concentration of DMSO was kept constant in all dilutions. 16 dilutions of the ligands were prepared in micro reaction tubes by successive 1:1 dilutions with […]
solubility problems. To this end, first, a dilution series in pure DMSO was generated. The individual dilutions were then further diluted 20-fold with MST buffer to a ligand concentration 2-fold higher than its final concentration. As a final step, 10 μL of the fluorescently labeled START domain was added to all reaction tubes containing 10 μL of ligand solution. The final concentration of START domain was 50 nM. After mixing, 2-3 μL of the reaction mixture were filled into standard capillaries (Nanotemper Technologies).
MST measurements were performed with a Monolith NT.115 instrument (Nanotemper Technologies). All ligands were measured as triplicates. 40% MST excitation power was set and, depending on the labeled protein concentration used in the assay, between 5% to 20% of LED […]

Row | SMILES | pKd (read-out: KD) | also measured
1 | CCCCCCCCCCCC(=O)NC(CO)CC(O)c1ccccc1 (stereo not drawn) [HPA-12, N-(3Hydroxy-1-hydroxymethyl-3-phenylpropyl)-dodecamide] | 7.38 | pKd (listed as HPA‐12, read-out: KD): ~7.40
2 | CC1=NN(c2ccc(C)c(C)c2)C(=O)/C1=N\Nc1cccc(-c2cccc(C(=O)O)c2)c1O [17C9, Eltrombopag] |  | binding confirmed by MST (labeled START domain): confirmed binding for all compounds except 17C9
3 | O=C(NC1CCN(CCCCC2(C(=O)NCC(F)(F)F)c3ccccc3-c3ccccc32)CC1)c1ccccc1-c1ccc(C(F)(F)F)cc1 [8E8, lomitapide] | ~5.30 and 5.17 | 
4 | Cc1cc(C2=NOC(c3cc(Cl)cc(Cl)c3)(C(F)(F)F)C2)ccc1C(=O)NCC(=O)NCC(F)(F)F (stereo not drawn) [20D5, Fluralaner] |  | pKd (KD): ~3.82 and 3.81
5 | CCCC(=O)OCOC(=O)C1=C(C)NC(C)=C(C(=O)OC)C1c1cccc(Cl)c1Cl (stereo not drawn) [6B11, Clevidipine butyrate] | ~5.30 and 5.63 | 
